Test results from patent US11339130B1 (Blade Therapeutics, Inc., priority 2016, dated 2022).

Assays:
Human Calpain 2/NS1 = target: T1, Human Calpain 2/NS1 (Homo sapiens, UniProt P17655); test: Calpain inhibition continuous fluorescence (FRET) assay, Human Calpain 2/NS1; format: biochemical; details: read-out: Human Calpain 2/NS1 IC50
T1 sequence (P17655 1-700): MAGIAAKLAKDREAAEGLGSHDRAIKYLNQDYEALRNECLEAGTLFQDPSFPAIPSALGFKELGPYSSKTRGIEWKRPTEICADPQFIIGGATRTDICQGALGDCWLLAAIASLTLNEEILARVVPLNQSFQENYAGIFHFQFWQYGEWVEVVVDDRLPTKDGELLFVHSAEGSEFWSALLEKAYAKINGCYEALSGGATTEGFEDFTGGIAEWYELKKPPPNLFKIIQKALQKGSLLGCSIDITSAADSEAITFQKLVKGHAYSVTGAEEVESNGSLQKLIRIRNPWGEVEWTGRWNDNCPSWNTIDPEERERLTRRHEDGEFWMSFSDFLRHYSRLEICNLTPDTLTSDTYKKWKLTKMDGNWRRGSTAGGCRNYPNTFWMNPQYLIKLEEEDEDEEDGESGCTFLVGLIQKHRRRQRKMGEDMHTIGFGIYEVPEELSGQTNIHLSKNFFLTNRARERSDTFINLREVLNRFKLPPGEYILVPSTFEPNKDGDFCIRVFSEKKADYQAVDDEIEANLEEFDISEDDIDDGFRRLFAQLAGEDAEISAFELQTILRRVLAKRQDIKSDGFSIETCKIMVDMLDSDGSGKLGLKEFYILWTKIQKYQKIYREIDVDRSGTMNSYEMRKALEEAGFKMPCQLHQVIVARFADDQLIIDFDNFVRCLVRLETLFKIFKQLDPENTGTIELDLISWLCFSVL
T1 sequence (P04632 1-268 partner): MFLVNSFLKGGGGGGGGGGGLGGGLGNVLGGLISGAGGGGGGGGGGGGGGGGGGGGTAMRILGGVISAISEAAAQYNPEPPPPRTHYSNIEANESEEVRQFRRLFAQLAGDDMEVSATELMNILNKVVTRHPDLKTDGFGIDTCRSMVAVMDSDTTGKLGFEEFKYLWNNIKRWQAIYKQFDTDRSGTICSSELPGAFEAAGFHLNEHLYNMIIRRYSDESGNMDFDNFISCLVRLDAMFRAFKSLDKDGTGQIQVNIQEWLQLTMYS
Procedure, shortened: (§1)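 Inhibitors were preincubated with calpain in 50 mM Tris pH 7.5, 100 mM NaCl, 1 mM DTT at 25C. Reactions were started with 5-FAM/QXL 520 FRET peptide substrate plus CaCl2 and read at 490/520 nm for 10 min. IC50s came from 4-parameter fits of slope rates (1-5 min).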

[1] = test system: Calpain activity in SH-SY5Y cells; test: SH-SY5Y + AMC fluorescence assay (Suc-LLVY-AMC substrate); format: cell-based; details: read-out: SH-SY5Y + AMC IC50
Human Calpain 1/NS1 = target: T2, Human Calpain 1/NS1 (Homo sapiens, UniProt P07384); test: Calpain inhibition continuous fluorescence (FRET) assay, Human Calpain 1/NS1; format: biochemical; details: read-out: Human Calpain 1/NS1 IC50
T2 sequence (P07384 1-714): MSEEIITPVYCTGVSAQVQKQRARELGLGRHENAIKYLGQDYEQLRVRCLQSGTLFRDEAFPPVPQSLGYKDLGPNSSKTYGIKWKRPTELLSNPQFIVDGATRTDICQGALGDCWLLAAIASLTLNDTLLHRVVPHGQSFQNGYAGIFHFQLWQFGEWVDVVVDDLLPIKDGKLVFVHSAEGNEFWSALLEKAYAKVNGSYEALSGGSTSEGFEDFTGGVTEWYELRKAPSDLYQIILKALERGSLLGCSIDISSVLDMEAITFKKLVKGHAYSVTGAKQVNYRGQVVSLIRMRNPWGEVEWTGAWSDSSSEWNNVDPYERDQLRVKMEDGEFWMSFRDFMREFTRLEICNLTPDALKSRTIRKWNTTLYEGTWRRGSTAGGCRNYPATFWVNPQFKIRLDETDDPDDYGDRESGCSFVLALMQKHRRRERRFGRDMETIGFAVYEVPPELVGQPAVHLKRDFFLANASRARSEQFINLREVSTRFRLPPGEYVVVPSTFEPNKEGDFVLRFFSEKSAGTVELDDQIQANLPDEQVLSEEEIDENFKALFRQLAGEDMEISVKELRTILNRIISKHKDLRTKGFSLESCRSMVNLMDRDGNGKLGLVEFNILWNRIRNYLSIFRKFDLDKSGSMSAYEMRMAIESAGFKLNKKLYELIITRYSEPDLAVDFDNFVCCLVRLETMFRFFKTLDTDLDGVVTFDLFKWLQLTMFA
T2 sequence (P04632 1-268 partner): T1 sequence (P04632 1-268 partner)
Procedure, shortened: as §1

Human Calpain 9/NS1 = target: T3, Human Calpain 9/NS1 (Homo sapiens, UniProt O14815); test: Calpain inhibition continuous fluorescence (FRET) assay, Human Calpain 9/NS1; format: biochemical; details: read-out: Human Calpain 9/NS1 IC50
T3 sequence (O14815 1-690): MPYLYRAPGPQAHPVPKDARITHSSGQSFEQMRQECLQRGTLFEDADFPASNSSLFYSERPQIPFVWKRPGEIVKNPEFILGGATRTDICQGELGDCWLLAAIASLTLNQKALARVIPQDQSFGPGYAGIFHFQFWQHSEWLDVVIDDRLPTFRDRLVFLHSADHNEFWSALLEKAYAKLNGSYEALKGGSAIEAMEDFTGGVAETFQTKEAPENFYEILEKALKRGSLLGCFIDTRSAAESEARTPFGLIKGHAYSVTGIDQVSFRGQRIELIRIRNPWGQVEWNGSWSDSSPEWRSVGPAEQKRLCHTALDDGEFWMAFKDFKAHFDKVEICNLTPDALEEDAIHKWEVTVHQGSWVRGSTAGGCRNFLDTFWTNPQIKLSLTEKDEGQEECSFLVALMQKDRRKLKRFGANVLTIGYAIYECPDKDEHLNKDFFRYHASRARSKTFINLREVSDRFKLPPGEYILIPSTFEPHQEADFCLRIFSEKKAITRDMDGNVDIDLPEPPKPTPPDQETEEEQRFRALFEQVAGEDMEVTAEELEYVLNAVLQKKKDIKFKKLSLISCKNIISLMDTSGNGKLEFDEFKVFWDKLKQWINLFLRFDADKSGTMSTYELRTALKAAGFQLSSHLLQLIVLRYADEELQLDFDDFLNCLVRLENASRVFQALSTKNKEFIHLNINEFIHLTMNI
T3 sequence (P04632 1-268 partner): T1 sequence (P04632 1-268 partner)
Procedure, shortened: as §1

[2] = test system: Calpain activity in SH-SY5Y cells (SBDP-150); test: SH-SY5Y Spectrin western blot assay (SBDP-150 breakdown product, A23187-induced); format: cell-based; details: Homo sapiens; SH-SY5Y cells, A23187-induced SBDP-150, western blot; read-out: SH-SY5Y Spectrin IC50

Row | IC50 (Human Calpain 2/NS1) [µM] | IC50 [1] [µM] | IC50 (Human Calpain 1/NS1) [µM] | IC50 (Human Calpain 9/NS1) [µM] | IC50 [2] [µM] | Structure (SMILES)
1 | < 3 | 10 to 25 | < 3 | < 3 | > 25 | NC(=O)C(=O)C(Cc1ccccc1)NC(=O)c1cn(C(F)F)nc1-c1cnccn1 (centres unmarked) [Compound 581, N-(4-amino-3,4-dioxo-1-phenylbutan-2-yl)-1-(difluoromethyl)-3-(pyrazin-2-yl)-1H-pyrazole-4-carboxamide]
2 | < 3 | 10 to 25 | < 3 | < 3 | < 10 | Cc1cncc(-c2nn(C(F)F)cc2C(=O)NC(Cc2ccccc2)C(=O)C(N)=O)c1 (centres unmarked) [Compound 582, N-(4-amino-3,4-dioxo-1-phenylbutan-2-yl)-1-(difluoromethyl)-3-(5-methylpyridin-3-yl)-1H-pyrazole-4-carboxamide]
3 | < 3 | 10 to 25 | < 3 | < 3 | < 10 | Cc1cccc(-c2oncc2C(=O)NC(Cc2ccccc2)C(=O)C(N)=O)c1F (centres unmarked) [Compound 584, N-(4-amino-3,4-dioxo-1-phenylbutan-2-yl)-5-(2-fluoro-3-methylphenyl)isoxazole-4-carboxamide]
4 | < 3 | 10 to 25 | < 3 | < 3 | 10 to 25 | NC(=O)C(=O)C(Cc1ccccc1)NC(=O)c1cn(C(F)F)nc1-c1cncc(F)c1 (centres unmarked) [Compound 586, N-(4-amino-3,4-dioxo-1-phenylbutan-2-yl)-1-(difluoromethyl)-3-(5-fluoropyridin-3-yl)-1H-pyrazole-4-carboxamide]
5 | < 3 | > 25 | < 3 | 3 to 10 | > 25 | Cn1cc(C(=O)NC(Cc2ccccc2)C(=O)C(N)=O)c(-c2ccc3ccccc3n2)n1 (centres unmarked) [Compound 587, N-(4-amino-3,4-dioxo-1-phenylbutan-2-yl)-1-methyl-3-(quinolin-2-yl)-1H-pyrazole-4-carboxamide]
6 | < 3 | > 25 | < 3 | < 3 | > 25 | Cn1cc(C(=O)NC(Cc2ccccc2)C(=O)C(N)=O)c(-c2ccc3ncccc3c2)n1 (centres unmarked) [Compound 593, N-(4-amino-3,4-dioxo-1-phenylbutan-2-yl)-1-methyl-3-(quinolin-6-yl)-1H-pyrazole-4-carboxamide]
7 | < 3 | 10 to 25 | < 3 | < 3 | 10 to 25 | Cn1cc(C(=O)NC(Cc2ccccc2)C(=O)C(N)=O)c(-c2cccc3ncccc23)n1 (centres unmarked) [Compound 597, N-(4-amino-3,4-dioxo-1-phenylbutan-2-yl)-1-methyl-3-(quinolin-5-yl)-1H-pyrazole-4-carboxamide]

Continued, compound first:

Row | Structure (SMILES) | IC50 (Human Calpain 2/NS1) [µM] | IC50 [1] [µM] | IC50 (Human Calpain 1/NS1) [µM] | IC50 (Human Calpain 9/NS1) [µM] | IC50 [2] [µM]
8 | Cn1cc(C(=O)NC(C(=O)C(N)=O)c2ccc3ccccc3c2)c(-c2ccccc2F)n1 (centres unmarked) [Compound 579, N-(3-amino-1-(naphthalen-2-yl)-2,3-dioxopropyl)-3-(2-fluorophenyl)-1-methyl-1H-pyrazole-4-carboxamide] | < 3 | < 10 | < 3 | < 3 | > 25
9 | Cn1cc(C(=O)NC(Cc2cc(F)cc(F)c2)C(=O)C(N)=O)c(-c2ccccc2F)n1 (centres unmarked) [Compound 580, N-(4-amino-1-(3,5-difluorophenyl)-3,4-dioxobutan-2-yl)-3-(2-fluorophenyl)-1-methyl-1H-pyrazole-4-carboxamide] | < 3 | < 10 | < 3 | < 3 | 10 to 25
10 | Cc1c(C(=O)NC(Cc2ccccc2)C(=O)C(N)=O)c(-c2ccccc2)nn1C (centres unmarked) [Compound 583] | < 3 | > 25 | < 3 | < 3 | > 25
11 | NC(=O)C(=O)C(Cc1ccccc1)NC(=O)c1cn(C(F)F)nc1-c1ccc2ccccc2n1 (centres unmarked) [Compound 588, N-(4-amino-3,4-dioxo-1-phenylbutan-2-yl)-1-(difluoromethyl)-3-(quinolin-2-yl)-1H-pyrazole-4-carboxamide] | < 3 | > 25 | < 3 | < 3 | 10 to 25
12 | Cn1cc(C(=O)NC(Cc2ccccc2)C(=O)C(N)=O)c(-c2cncc3ccccc23)n1 (centres unmarked) [Compound 591, N-(4-amino-3,4-dioxo-1-phenylbutan-2-yl)-3-(isoquinolin-4-yl)-1-methyl-1 h-pyrazole-4-carboxamide] | < 3 | > 25 | < 3 | < 3 | > 25
13 | Cc1nc(-c2ccccc2F)c(C(=O)N[C@H](Cc2ccccc2)C(=O)C(N)=O)o1 [Compound 592, (R)—N-(4-amino-3,4-dioxo-1-phenylbutan-2-yl)-4-(2-fluorophenyl)-2-methyloxazole-5-carboxamide] | < 3 | < 10 | < 3 | < 3 | 10 to 25
14 | Cc1c(F)cccc1-c1oncc1C(=O)NC(Cc1ccccc1)C(=O)C(N)=O (centres unmarked) [Compound 594, N-(4-amino-3,4-dioxo-1-phenylbutan-2-yl)-5-(3-fluoro-2-methylphenyl)isoxazole-4-carboxamide] | < 3 | < 10 | < 3 | < 3 | 10 to 25
15 | COc1cccc(-c2oncc2C(=O)NC(Cc2ccccc2)C(=O)C(N)=O)c1F (centres unmarked) [Compound 595, N-(4-amino-3,4-dioxo-1-phenylbutan-2-yl)-5-(2-fluoro-3-methoxyphenyl)isoxazole-4-carboxamide] | < 3 | > 25 | < 3 | < 3 | 10 to 25
16 | NC(=O)C(=O)C(Cc1ccccc1)NC(=O)c1cn(C(F)F)nc1-c1ccnc2ccccc12 (centres unmarked) [Compound 596, N-(4-amino-3,4-dioxo-1-phenylbutan-2-yl)-1-(difluoromethyl)-3-(quinolin-4-yl)-1H-pyrazole-4-carboxamide] | < 3 | < 10 | < 3 | < 3 | 10 to 25
